Source: patent publication US20230279244A1, “RESIN COMPOSITION, COATED AND DRIED PRODUCT, MELT-KNEADED PRODUCT, OPTICAL FILTER, IMAGE DISPLAY DEVICE, SOLID-STATE IMAGING ELEMENT, SQUARYLIUM COMPOUND, AND METHOD FOR PRODUCING THE SAME” (FUJIFILM Corporation, priority 2020, published 2023)

What was measured:
[1] = Evaluation of solubility of squarylium compound in toluene/cyclohexanone mixed solvent (Test Example 2); format: physicochemical; conditions: for Solubility: mixed solvent toluene/cyclohexanone=90/10 (vol %); for Solubility, measured dissolved amount: dissolved in 100 parts by mass of toluene/cyclohexanone=90/10 (vol %)
Procedure: Solubility of the obtained squarylium compound B-12 in a mixed solvent of toluene/cyclohexanone (toluene/cyclohexanone=90/10 (vol %)) was confirmed. Specifically, a dissolved amount (% by mass) of squarylium compound B-12 dissolved in 100 parts by mass of the mixed solvent of toluene/cyclohexanone was measured.
The solubility was evaluated by applying the obtained dissolved amount to the following standard.
—Evaluation Standard of Solubility—
B: 0.01% by mass or more and less than 0.1% by mass
C: less than 0.01% by mass

[2] = Measurement of maximal absorption wavelength of squarylium compound (Test Example 1); format: physicochemical; conditions: in chloroform, concentration 1×10^−6 mol/L, optical path length 10 mm
Procedure: The obtained squarylium compound B-12 was dissolved in chloroform (concentration: 1×10^−6 mol/L), and the maximum absorption wavelength λmax of the squarylium compound B-12 was measured using a cell having an optical path length of 10 mm and using a spectrophotometer UV-1800PC (manufactured by Shimadzu Corporation).

SMILES	Solubility [1]	λmax (maximum absorption wavelength) [2]	Solubility, measured dissolved amount [1]	Solubility in an organic solvent (in words) ([1]; summary of Tables 1 to 5)
CCCCc1ccc(N(CC(CC)CCCC)c2ccc(C3=C([O-])/C(=C4C=C/C(=[N+](\CC(CC)CCCC)c5ccc(CCCC)cc5)C=C/4NC(=O)C(F)(F)F)C3=O)c(NC(=O)C(F)(F)F)c2)cc1 (stereo not shown) [A-22]	A (0.1% by mass or more)	688 nm	–	–
CC(=O)NC1=CC(=[N+](c2ccccc2)c2ccccc2)C=C/C1=C1/C(=O)C(c2ccc(N(c3ccccc3)c3ccccc3)cc2NC(C)=O)=C1[O-] [C-2, reference compound]	C (less than 0.01% by mass)	737 nm	(<0.005% by mass	–
CCCCC(CC)C(=O)NC1=CC(=[N+](/CCCC)c2ccc(C)cc2)/C=CC/1=C1\C(=O)C(c2ccc(N(CCCC)c3ccc(C)cc3)cc2NC(=O)C(CC)CCCC)=C1[O-] (stereo not shown) [A-1]	A (0.1% by mass or more)	688 nm	–	–
CCCCc1ccc(N(CC(CC)CCCC)c2ccc(C3=C([O-])/C(=C4C=C/C(=[N+](\CC(CC)CCCC)c5ccc(CCCC)cc5)C=C/4NC(=O)c4ccccc4)C3=O)c(NC(=O)c3ccccc3)c2)cc1 (stereo not shown) [A-28]	A (0.1% by mass or more)	695 nm	–	–
CCCCC(CC)CN(CC(CC)CCCC)c1ccc(C2=C([O-])/C(=C3C=C/C(=[N+](\CC(CC)CCCC)c4ccc(C)cc4)C=C/3NC(=O)C(C)(C)CC)C2=O)c(NC(=O)C(C)(C)CC)c1 (stereo not shown) [A-5]	A (0.1% by mass or more)	681 nm	–	–
CCN(c1ccc(C)cc1)c1ccc(C2=C([O-])/C(=C3C=C/C(=[N+](\CC)c4ccc(C)cc4)C=C/3NC(=O)C(C)C)C2=O)c(NC(=O)C(C)C)c1 [C-4, reference compound]	B (0.01% by mass or more and less than 0.1% by mass)	685 nm	–	exhibiting solubility in an organic solvent
CCCCC(CC)CN(c1ccc(C)cc1)c1ccc(C2=C([O-])/C(=C3C=C/C(=[N+](\CC(CC)CCCC)c4ccc(C)cc4)C=C/3NC(=O)C(C)(C)CC)C2=O)c(NC(=O)C(C)(C)CC)c1 (stereo not shown) [A-2]	A (0.1% by mass or more)	690 nm	–	–
CCCCC(CC)CN(c1ccc(C2=C([O-])/C(=C3C=C/C(=[N+](\CC(CC)CCCC)c4ccc(C)cc4C)C=C/3NC(=O)C(C)(C)CC)C2=O)c(NC(=O)C(C)(C)CC)c1)c1ccc(C)cc1C (stereo not shown) [A-26]	A (0.1% by mass or more)	688 nm	–	–
CC(=O)NC1=CC(=[N+](/C)c2ccccc2)/C=CC/1=C1/C(=O)C(c2ccc(N(C)c3ccccc3)cc2NC(C)=O)=C1[O-] [C-1, reference compound]	C (less than 0.01% by mass)	680 nm	(<0.005% by mass	–
CCCCc1ccc(N(CC(CC)CCCC)c2ccc(C3=C([O-])/C(=C4C=C/C(=[N+](\CC(CC)CCCC)c5ccc(CCCC)cc5)C=C/4NC(=O)c4ccccc4C)C3=O)c(NC(=O)c3ccccc3C)c2)cc1 (stereo not shown) [A-29]	A (0.1% by mass or more)	695 nm	–	–
CCCCc1ccc(N(CC(CC)CCCC)c2ccc(C3=C([O-])/C(=C4C=C/C(=[N+](\CC(CC)CCCC)c5ccc(CCCC)cc5)C=C/4NC(=O)C(C)(C)CC)C3=O)c(NC(=O)C(C)(C)CC)c2)cc1 (stereo not shown) [A-19]	A (0.1% by mass or more)	687 nm	–	–
CCCCC(CC)CN(CC(CC)CCCC)c1ccc(C2=C([O-])/C(=C3/C=CC(=[N+](c4ccc(C)cc4)c4ccc(C)cc4)C=C3NC(=O)C(C)(C)CC)C2=O)c(NC(=O)C(C)(C)CC)c1 (stereo not shown) [A-4]	A (0.1% by mass or more)	699 nm	–	–
CCCCc1ccc(N(CC(CC)CCCC)c2ccc(C3=C([O-])/C(=C4C=C/C(=[N+](\CC(CC)CCCC)c5ccc(CCCC)cc5)C=C/4NC(=O)c4c(C)cc(C)cc4C)C3=O)c(NC(=O)c3c(C)cc(C)cc3C)c2)cc1 (stereo not shown) [A-20]	A (0.1% by mass or more)	696 nm	–	–
CCCCc1ccc(N(CC(CC)CCCC)c2ccc(C3=C([O-])/C(=C4C=C/C(=[N+](\CC(CC)CCCC)c5ccc(CCCC)cc5)C=C/4NC(=O)c4ccc5ccccc5c4)C3=O)c(NC(=O)c3ccc4ccccc4c3)c2)cc1 (stereo not shown) [A-30]	A (0.1% by mass or more)	697 nm	–	–
CCCCN(c1ccccc1)c1ccc(C2=C([O-])/C(=C3C=C/C(=[N+](\CCCC)c4ccccc4)C=C\3NC(C)=O)C2=O)c(NC(C)=O)c1 [C-6, reference compound]	C (less than 0.01% by mass)	681 nm	(<0.01% by mass	–
Cc1ccc(N(C)c2ccc(C3=C([O-])/C(=C4C=C/C(=[N+](\C)c5ccc(C)cc5)C=C\4O)C3=O)c(O)c2)cc1 [C-3, reference compound]	C (less than 0.01% by mass)	658 nm	(<0.005% by mass	–
